This note sets out measurements from patent publication US20190269666A1, “COMBINATION THERAPY WITH MERESTINIB AND ANTI-PD-L1 OR ANTI-PD-1 INHIBITORS FOR USE IN THE TREATMENT OF CANCER” (Eli Lilly and Company, priority 2016, published 2019).

The subject of this assay is 80-murine immune gene panel (mRNA expression) in CT26 tumors. Kind of assay: Immuno-landscape analysis, QuantiGene mu-80 immune gene panel on CT26 tumors. The class given is in vivo, mouse. The following applies: for Log2 (difference to vehicle control): CT26 tumors, Day 20. The protocol: Frozen tumor fragments of the samples collected on study Day 20 from 5 animals from each treatment arm (study S010516) are analyzed for gene expression of 80 markers using the Quantigene murine-80 panel (mu-80 immune panel #21681). Total RNA was isolated from lysed samples using the MAGMAX™ 96 Total RNA isolation kit (Life Technologies). Snap-frozen tumor fragments are lysed by adding 500 μL, of prepared lysis/binding buffer (MAGMAX™ 96 Total RNA isolation kit) with a single stainless steel bead (5 mm) and then homogenized on a TissueLyser (Qiagen) for 2 minutes at 25 Hz. 200 μL of lysate, along with 120 μL of 100% isopropanol and 40 μL of prepared magnetic beads mix are then transferred to a 96 deep well processing plate. A series of washes and a DNase incubation step are processed on the MAGMAX™ Express-96 Deep Well Magnetic Particle Processor (Life Technologies). RNA is eluted from the magnetic beads with […] of elution buffer after a final wash step. RNA concentration is determined spectrophotometrically to determine optical density at 260 and 280 nm and is then diluted to the final concentration of 25 ng/μl. Tissue expression of immune related genes is then measured using a QuantiGene® 2.0 Plex assay (Affymetrix) with a custom probe set (mu-80 immune panel #21681, Table 6). Four house-keeping-genes (HKG: Gusb, Hprt1, Ppib, Rps18) are used to normalize the gene expression data. Data are normalized and curated using the Genepattern script v28.8. Statistics and bioinformatics are used to analyze the data.
Five hundred ng of total RNA from samples being analyzed is added in duplicate to individual wells of a 96-well hybridization plate containing QuantiGene® magnetic capture beads, QuantiGene® probeset #21681, and QuantiGene® blocking reagent for a final volume of 100 μL. The hybridization plate is then sealed and incubated at 54° C. while agitated at 600 rpm for 16 hours. Samples are then transferred to a 96-well assay plate and beads are then sequentially hybridized first with 100 μl of QuantiGene® Pre-Amplifier Probe, then with QuantiGene® Amplifier Probe, and finally with QuantiGene® Label Probe (1 hour at 50° C. for each step, with 2-3 washes between each step using a magnetic capture plate). Streptavidin-conjugated R-Phycoerythrin (SAPE, Affymetrix) is added after the last hybridization step and incubated for 30 minutes at room temperature with agitation at 600 rpm. Samples are then analyzed on the FLEXMAP 3D® Luminex instrument (Luminex Corp). Beads (mRNA target) are identified with a red laser while the level of RNA is determined by measuring the mean fluorescence intensity (MFI) of Phycoerythrin with a green laser. Raw MFI data are then converted into relative gene expression for each gene (Normalized Adjusted Net MFI, background subtracted and normalized to 4 housekeeping genes), using a quality control analysis script with GenePattern (Broad Institute). […] Next, the lower limit of detection (LLOD) is determined (average background MFI+3 standard deviation (SD)). […] Relative gene expression is then calculated by normalizing for each gene's adjusted net MFI to the geometric mean of the MFI of selected housekeeping genes (HKG) including Hprt1, Gusb, Rps18 and Ppib, as shown in Table 6: (Sample Adjusted Net MFI/geometric mean Adjusted Net HKG MFI) multiplied by a scaling factor of 100. […]

`Cc1ccc(C(=O)Nc2ccc(Oc3cc4cnn(C)c4cc3-c3cn[nH]c3)c(F)c2)c(=O)n1-c1ccc(F)cc1` [merestinib, N-(3-fluoro-4-(1-methyl-6-(1H-pyrazol-4-yl)-1H-indazol-5-yloxy)phenyl)-1-(4-fluorophenyl)-6-methyl-2-oxo-1,2-dihydropyridine-3-carboxamide]: the “Log2 (difference to vehicle control)” value by setting is: (gene Cdh1) 1.01; (gene Cdh1, listed as Merestinib alone) 1.0; (gene Tnfrsf) 0.8. Also, the “number of immune genes with no significant change vs vehicle control” value (of an 80-immune gene panel) is on record as 79. In addition, the “number of immune genes significantly different from vehicle control” value (of the 80 immune genes measured, tumors Day 20) is recorded as 1.
